The text below walks through data of patent US5880314A, “Hydrochalcone derivatives, cosmetic compositions containing said derivatives and methods of producing the same” (priority 1995, dated 1999).

For series [1], the system named is B16 melanoma cells. The series is described as follows: Melanoma cell depigmenting test (melanin production). As to conditions: 5 days, control as 100%; for activity at 0.01 µg/mL / activity at 0.03 µg/mL / activity at 0.3 µg/mL: Mus musculus, B16, 120 h. The series is classed as cell-based. How it is done: (Melanoma Cell Depigmenting Test)
Effect of compounds in suppressing melanin pigment synthesis was tested by measuring change in color of B16 melanoma cells when the cells were cultured at a concentration which had no adverse effect on growth of the cells. B16 Melanoma cells (1×10^5) were inoculated on 60 mm petri dishes. After 24 hours, 1,3-bis(2,4-dihydroxyphenyl)propane synthesized in Production Example 3, 1,3-bis(2,4-diacetoxyphenyl)propane synthesized in Production Example 4 and 1,3-bis(2,4-didodecanoyloxyphenyl)propane were added to the each medium, and incubation was curried out for 5 days. After incubation, the cells recovered by trypsin treatment were suspended in 0.3 ml of phosphate buffer and subjected to ultrasonic treatment for cell disruption, 0.3 ml of 4N NaOH was added to the treated suspension and the resultant suspension was incubated at 60° C. for 2 hours. Absorbance was measured at 400 nm and the amount of released melanin was calculated by setting the control as 100%. In Comparative Examples, similar tests were carried out using dihydrophloretin, a hydrochalcone compound, in place of the compounds of the present invention.

The test system of series [2] is skin. As to conditions: combined in cosmetics; cited from earlier work.
In series [3] the test system is synthesis of melanin. Conditions: reported in the literature; cited from earlier work.

As to `CC(=O)Oc1ccc(CCCc2ccc(OC(C)=O)cc2OC(C)=O)c(OC(C)=O)c1` [1,3-bis(2,4-diacetoxyphenyl)propane], in series [1] (0.01 μg/ml), the activity at 0.01 µg/mL is 44%. In series [1] (0.03 μg/ml), the activity at 0.03 µg/mL was 18%. The activity at 0.3 µg/mL in series [1] (0.30 μg/ml) was 11%.
In the same order, the values of `CCCCCCCCCCCC(=O)Oc1ccc(CCCc2ccc(OC(=O)CCCCCCCCCCC)cc2OC(=O)CCCCCCCCCCC)c(OC(=O)CCCCCCCCCCC)c1` [1,3-bis(2,4-didodecanoyloxyphenyl)propane] are 28%, 9% and 7%.
Consider `Oc1ccc(CCCc2ccc(O)cc2O)c(O)c1` [1,3-bis(2,4-dihydroxyphenyl)propane], for which the activity at 0.01 µg/mL in series [1] (0.01 μg/ml) was 31%. For the same compound, in series [1] (0.03 μg/ml), the activity at 0.03 µg/mL was determined as 10%. Also, the activity at 0.3 µg/mL in series [1] (0.30 μg/ml) is 7%.
On to `Oc1ccc(OCc2ccccc2)cc1` [hydroquinone monobenzyl ether], for which, in series [2], the “lightening of skin darkened with deposited pigment” value is on record as “effectively lightened”; the side effects result was “side effects such as skin allergies and irritation”.
Take `O=C(CCc1ccc(O)cc1)c1c(O)cc(O)cc1O[C@@H]1O[C@H](CO)[C@@H](O)[C@H](O)[C@H]1O` [phlorizin]: the “effect in suppressing the synthesis of melanin” value (“effect … of melanin” for short) in series [3] is reported as “have an effect in suppressing the synthesis of melanin”.
Turning to dihydrophloretin, the results for the “Melanin production (%)” value in series [1] (0.01 μg/ml), in series [1] (0.03 μg/ml) and in series [1] (0.30 μg/ml) were 92%, 80% and 65%, respectively. Further, the “effect … of melanin” value in series [3] is “have an effect in suppressing the synthesis of melanin”.
In the case of phlorezin, the “effect … of melanin” value in series [3] is reported as “have an effect in suppressing the synthesis of melanin”.
Turning to phlorine, the “effect … of melanin” value in series [3] is given as “have an effect in suppressing the synthesis of melanin”.
